The results in this text go back to publication PMC5387044, “Analogs of the Frog-skin Antimicrobial Peptide Temporin 1Tb Exhibit a Wider Spectrum of Activity and a Stronger Antibiofilm Potential as Compared to the Parental Peptide” (Frontiers in Chemistry, 2017).

Marks after values point to notes of the source that are not given here. No end group written: not given here.

Test [1] relates to P. aeruginosa ATCC 27853. Type of test: cell-based, Pseudomonas aeruginosa. The conditions noted are these: pH 7.4.
Test [2] relates to S. epidermidis ATCC 35984. The conditions noted are these: ATCC 35984, 24 h, pH 7.4.
Test [3] concerns K. pneumoniae ATCC BAA-1706. As to conditions: ATCC BAA-1706, 24 h, pH 7.4.
For test [4], the system named is P. aeruginosa ATCC 27853. The conditions noted are these: ATCC 27853, 24 h, pH 7.4.
Test [5] has as its system P. aeruginosa ATCC 27853 biofilm formation.
Test [6] relates to S. aureus ATCC 33591. Type of test: cell-based, Staphylococcus aureus. The conditions noted are these: pH 7.4.
For test [7], the system named is S. aureus ATCC 33591 biofilm formation. Type of test: cell-based, Staphylococcus aureus.
Test [8] concerns S. aureus ATCC 33591. The conditions noted are these: for MIC: ATCC 33591, 24 h.
The subject of test [9] is preformed biofilms of S. aureus ATCC 33591. Kind of test: Biofilm treatment assay on preformed (24-h old) biofilms, CFU counting, alone and with EDTA. As to conditions: 30 μM peptide alone. It counts as cell-based, Staphylococcus aureus. As to the method: The activity of TB, TB_L1FK, and TB_KKG6A against preformed (24-h old) biofilms of S. aureus and P. aeruginosa was also investigated. Briefly, biofilms were allowed to form for 24 h in flat-bottom 96-well microplates in the absence of antimicrobial compounds. Established biofilms were then washed three times with PBS in order to remove non-adherent cells and incubated in fresh BPM with different concentrations of the three peptides (from 15 to 120 μM). After 24 h of incubation, the viability of biofilm-associated cells was evaluated by CFU counting. For this purpose, biofilms were washed three times with PBS and bacterial cells were detached from the surface of the wells with a pipette tip, vigorously vortexed and plated in serial dilutions on TSA.
TB_L1FK and TB_KKG6A were combined with EDTA in order to enhance their activity against preformed biofilms of S. aureus and P. aeruginosa. […] Following incubation, the antibiofilm effect was evaluated in terms of number of biofilm-associated viable cells as previously described.
Figure 4 Activity of TB_L1FK and TB_KKG6A, used alone and in combination with EDTA, against preformed (24-h old) biofilms of S. aureus ATCC 33591 (A,B) and P. aeruginosa ATCC 27853 (C,D). The antibiofilm activity of the peptides, EDTA and the peptide-EDTA combinations was evaluated by CFU counting after 24 h of incubation. […]

For test [10], the system named is human peripheral blood mononuclear cells (PBMCs). As to conditions: 24 h.
The test system of test [11] is P. aeruginosa ATCC 27853. As to conditions: for FIC index / MIC: ATCC 27853, 24 h.
Test [12] has as its system human non-small-cell lung adenocarcinoma A549 cells. As to conditions: 24 h.
Test [13] has as its system preformed biofilms of P. aeruginosa ATCC 27853. Kind of test: Biofilm treatment assay on preformed (24-h old) biofilms, CFU counting, alone and with EDTA. It counts as cell-based, Pseudomonas aeruginosa. As to conditions: 30 μM peptide + 2.5 mM EDTA.
For test [14], the system named is S. aureus ATCC 33591. The conditions noted are these: ATCC 33591, 24 h, pH 7.4.

Broadly, the MBC is the lowest tested concentration that kills the bacteria rather than only halting them. The low end stands for more potent killing, the high end for less potent killing. For orientation: MIC means the lowest concentration that inhibits growth of the organism. Read a high MIC as a need for much substance. As a reminder, the IC50 is the concentration at which inhibition is half-maximal. A low value points to greater potency. As for KKLLPIVANLLKSLL-NH2 [TB_KKG6A], the “Time to bactericidal effect” value in test [1] turned out to be 15 min. In addition, the MBC was determined as 1.5 µM in test [2], 3 µM in test [3], 3 µM in test [4] and 1.5 µM in [14]. The “Inhibition of biofilm biomass” value in [5] (ATCC 27853, 24 h, 24 μM) was found to be 80%. For the same substance, the “Time to bactericidal effect (reduction of at least 3 Log10 in viable bacteria)” value in [6] is listed as no more than 60 min. Also, in test [7], the “Reduction of biofilm formation vs untreated control” value is “more than 50%”. In addition, the FIC index in test [8] is reported as greater than 0.5; in test [11], 0.25 (3.75 μM). The MIC in test [8] was determined as 7.5 µM; in test [11], 30 µM. Moreover, the “Decrease in the number of biofilm-associated viable cells vs untreated biofilms” value in test [9] was “approximately 2 Log10”. The IC50 came to 49 µM in [10] and 16 µM in test [12]. Also, in test [11], the “Concentration of the peptide resulting in a synergistic effect” value was 0.25 (3.75 μM). Further, the “Reduction in CFU number of peptide-EDTA combination compared to the peptide used alone” value in test [13] is “approximately 1 Log10”.
Turning to FLPIVGLLKSLLK-NH2 [TB_L1FK], the “Time to complete eradication of the starting bacterial inoculum” value in test [1] is recorded as no more than 5 min. Moreover, the MBC in test [2] is 1.5 µM; in [3], 6 µM; in [4], 6 µM; in [14], 6 µM. In test [5], the “Inhibitory activity on forming biofilms” value is given as “no inhibitory activity”. Moreover, in test [6], the “Time to bactericidal effect (reduction of at least 3 Log10 in viable bacteria)” value is recorded as no more than 30 min. Moreover, in test [7], the “Reduction of biofilm formation vs untreated control” value was “more than 50%”. In addition, the FIC index in [8] is on record as greater than 0.5; in test [11], 0.25 (15 μM)^b. Further, the minimum inhibitory concentration (MIC) in test [8] was 15 µM; in test [11], 120 µM. Besides, in test [9], the “Decrease in the number of biofilm-associated viable cells vs untreated biofilms” value is given as “approximately 2 Log10”. For the same substance, the IC50 in [10] was determined as 52 µM; in test [12] it was 59 µM. In addition, in [11], the “Concentration of the peptide resulting in a synergistic effect” value is listed as 0.25 (15 μM)^b. In test [13], the “Reduction in CFU number of peptide-EDTA combination compared to the peptide used alone” value is reported as “approximately 1 Log10”.
